Laboratory results: US6040338A, “N,n-bis(sulfonyl)hydrazines useful as antineoplastic agents” (Yale University, priority 1997, dated 2000)
“Also recorded” adds a separate entry of the source. Where a name gives a salt, the structure may show the parent alone.

What was measured:
[1] = test system: tumor; conditions: in vivo; cited from earlier work
[2] = test system: host animals; conditions: in vivo; cited from earlier work
[3] = test system: GSH/GST; assay: Relative rate of activation by GSH/GST in vitro; assay type: in vitro ADME; conditions: GSH 1 mM, GST 400 μg/ml; for Relative Activation Rate by GSH/GST: 1 mM compound, compound 6 = 100
Protocol: When R^3 is a methyl group, the rate of activation by GSH/GST is highly dependent upon the nature of the 2-alkoxy- or 2-aryloxycarbonyl moiety at the R^4 position.
The rate of activation of 2-(2-bromoethoxy)carbonyl-1,2-bis(methylsulfonyl)-1-methylhydrazine (compound 8) was elevated approximately 18-fold in vitro by the presence of GSH (1 mM) and GST (400 μg/ml), compared to buffer alone.

[4] = Activation by hydrolysis in phosphate buffer; assay type: physicochemical; conditions: 1 mM phosphate buffer, pH 7.4, 37° C.
Protocol: (§1) The rates of activation of compounds 10a-h were measured in 1 mM phosphate buffer (pH 7.4, 37° C.) alone, 1 mM phosphate buffer containing 5 mM GSH (pH 7.4, 37° C.), and in 1 mM phosphate buffer containing 5 mM GSH and 17.5 U/ml of GST (pH 7.4, 37° C.) (Table 3).

[5] = test system: GST; assay: Activation by GST-catalyzed thiolysis; assay type: in vitro ADME; conditions: 1 mM phosphate buffer, 5 mM GSH, 17.5 U/ml GST, pH 7.4, 37° C.
Protocol: as §1

[6] = Activation by thiolysis (GSH); assay type: in vitro ADME; conditions: 1 mM phosphate buffer, 5 mM GSH, pH 7.4, 37° C.
Protocol: as §1

[7] = test system: L1210 leukemia; assay: Survival time and body weight of mice bearing the L1210 leukemia; assay type: in vivo, mice (CD2 F1); conditions: for Av Δ wt (average percent change in body weight from onset to termination of therapy) / % 60-day survivors: Table 4; for Av Δ wt (average percent change in body weight from onset to termination of therapy): i.p. once daily for 6 days at optimum daily dose (10a 60, 10b 25, 10c 12.5, 10d-h 30 mg/kg); for % 60-day survivors: i.p. once daily for 6 days at optimum daily dose (30 mg/kg for 10d-g); for % Body Weight Change / Average Survival / T/C / Long Term Survival: Table 5; for Long Term Survival: survivors/animals
Protocol: The ascites cell form of leukemia L1210 was obtained from the Frederick Cancer Research Facility, Division of Cancer Treatment Tumor Repository of the National Cancer Institute, and was maintained by serial passage in tissue culture. Every 8 weeks, tumor cells were injected intraperitoneally into 5 donor CD2 F1 mice 8-10 weeks of age and were allowed to grow for 7 days. The peritoneal fluid was withdrawn, and the suspension was centrifuged for 5 min at 1600×g. The supernatant was decanted, and 10^5 cells/ml were seeded into 10 ml of RPMI 1640 medium supplemented with 10% fetal bovine serum and 1% L-glutamine (200 mM) and once again maintained in culture. To assay for antitumor activity, 0.1 ml of the cell suspension containing 10^5 leukemia cells was injected into each recipient mouse. […] Each drug was administered intraperitoneally as a solution in 100% dimethyl sulfoxide, in a volume not exceeding 25 μl. […] Mice were weighed during the course of the experiments, and the percentage change in body weight from onset to termination of therapy was used as an indication of drug toxicity. Determination of the sensitivity of neoplasms to these agents was based upon the prolongation of survival time afforded by the drug treatments.
The antitumor activity of compounds 10a-h and 16 were assessed in mice bearing the L1210 leukemia. The results of these tests are summarized in Tables 4 and 5 which show the effects of 2-alkoxycarbonyl- and 2-aryloxycarbonyl-1,2-bis(methylsulfonyl)-1-(2-chloroethyl)hydrazines on the survival time of mice bearing the L1210 leukemia.
In Table 4, the optimum daily dose was administered once per day for six consecutive days, beginning 24 hours after tumor implantation, with 5-10 mice being used per group. In Table 5, multiple dosages of compound 16 are indicated. "Av Δ wt" refers to the average percent change in body weight from onset to termination of therapy. "% T/C" refers to the average survival time of treated/control mice×100. Cures (60-day survivors) are listed separately and are not included in this calculation.

[8] = test system: EMT6 mammary carcinoma cells; assay: Colony-forming assay, EMT6 cells under hypoxic or aerobic conditions; assay type: cell-based, mouse; conditions: 1 hr
Protocol: The ability of compounds 10h, 11, 12, and 14 to exert preferential toxicity to hypoxic cells was evaluated using the EMT6 mammary carcinoma by methodology described previously (Rockwell, S., Keyes, S. R., and Sartorelli, A. C. Rad. Res. 116: 100-113 (1988); Keyes, S. R., Rockwell, S., and Sartorelli, A. C. Cancer Res. 45: 213-216 (1985)). Briefly, exponentially growing monolayers of EMT6 (or CHO-K1/dhfr clone) were exposed to a continuously flowing 95% N2 /5% CO2 humidified atmosphere for 2 h to produce radiobiologic hypoxia. Parallel flasks were maintained similarly in humidified 95% air/5% CO2. Without breaking the hypoxia, cells were exposed to various concentrations of the test agent for 1 hr. Cell survival was then measured by colony formation.
The cytotoxicity of compound 10h was evaluated against EMT6 mouse mammary carcinoma cells in vitro under aerobic and hypoxic conditions using the colony-forming assay described above. FIG. 1 depicts the survival of EMT6 cells exposed to various concentrations of compound 10h for 1 hr under hypoxic or aerobic conditions in vitro. Points are the geometric means of two or more independent determinations of surviving fractions. The SEMs are shown where n≥3 and where the error is larger than the point size. Open triangles represent aerobic data points and filled triangles represent hypoxic data points.
Compound 12 was evaluated for its ability to exert preferential toxicity to hypoxic EMT6 cells relative to their aerobic counterparts. […] Points are geometric means of two or more independent determinations of surviving fractions. The SEMs are shown where n≥3 and where the error is larger than the point size. Open triangles are aerobic data points, and filled triangles are hypoxic data points. […] Points are means of duplicate determinations. Open triangles are parental-aerobic; filled triangles are parental-hypoxic; open circles are NADPH:cytochrome P450 reductase-transfected-aerobic; filled circles are NADPH:cytochrome P450 reductase-transfected-hypoxic.

CS(=O)(=O)N(CCCl)N(C(=O)NCCCl)S(C)(=O)=O [Compound 3]
antitumor/antineoplastic activity (in words) [1]: broad-spectrum antitumor activity
host toxicity (in words) [2]: considerably less toxic to host animals than compound 2

CC(=O)N(N(CCCl)S(C)(=O)=O)S(C)(=O)=O [Compound 4]
antitumor/antineoplastic activity (in words) [1]: broad-spectrum antitumor activity
host toxicity (in words) [2]: considerably less toxic to host animals than compound 2

CCOC(=O)N(N(C)S(C)(=O)=O)S(C)(=O)=O [Compound 7, 1,2-Bis(methylsulfonyl)-2-(ethoxycarbonyl)-1-methylhydrazine]
Relative Activation Rate by GSH/GST [3]: 30

CN(N(C(=O)OCCBr)S(C)(=O)=O)S(C)(=O)=O [Compound 8, 1,2-Bis(methylsulfonyl)-2-(2-bromoethoxycarbonyl)-1-methylhydrazine]
Relative Activation Rate by GSH/GST [3]: 300
elevation of rate of activation by GSH and GST compared to buffer alone ([3]; in vitro): approximately 18 fold

COc1ccc(OC(=O)N(N(C)S(C)(=O)=O)S(C)(=O)=O)cc1 [Compound 9, 1,2-Bis(methylsulfonyl)-2-[(4-methoxyphenoxy)carbonyl]-1-methylhydrazine]
Relative Activation Rate by GSH/GST [3]: 1,700

COC(=O)N(N(CCCl)S(C)(=O)=O)S(C)(=O)=O [Compound 10a, 1,2-Bis(methylsulfonyl)-1-(2-chloroethyl)-2-(methoxycarbonyl)hydrazine]
Calculated Activation Rate due to Hydrolysis [4]: 0.03 nmol/mL/min
Calculated Activation Rate due to Catalyzed Thiolysis (5 mM GSH + 17.5 U/ml GST) [5]: 0.00 nmol/mL/min
Calculated Activation Rate due to Thiolysis (5 mM GSH) [6]: 0.02 nmol/mL/min
Av Δ wt (average percent change in body weight from onset to termination of therapy) [7]: -10.9%

CS(=O)(=O)N(CCCl)N(C(=O)OCCCl)S(C)(=O)=O [Compound 10b, 1,2-Bis(methylsulfonyl)-1-(2-chloroethyl)-2-(2-chloroethoxycarbonyl)hydrazine]
Calculated Activation Rate due to Hydrolysis [4]: 0.02 nmol/mL/min
Calculated Activation Rate due to Catalyzed Thiolysis (5 mM GSH + 17.5 U/ml GST) [5]: 0.08 nmol/mL/min
Calculated Activation Rate due to Thiolysis (5 mM GSH) [6]: 0.02 nmol/mL/min
Av Δ wt (average percent change in body weight from onset to termination of therapy) [7]: -10.7%

C=COC(=O)N(N(CCCl)S(C)(=O)=O)S(C)(=O)=O [Compound 10c, 1,2-Bis(methylsulfonyl)-1-(2-chloroethyl)-2-(vinyloxycarbonyl)hydrazine]
Calculated Activation Rate due to Hydrolysis [4]: 0.07 nmol/mL/min
Calculated Activation Rate due to Catalyzed Thiolysis (5 mM GSH + 17.5 U/ml GST) [5]: 4.70 nmol/mL/min
Calculated Activation Rate due to Thiolysis (5 mM GSH) [6]: 2.07 nmol/mL/min
Av Δ wt (average percent change in body weight from onset to termination of therapy) [7]: -12.4%

CS(=O)(=O)N(CCCl)N(C(=O)Oc1ccccc1)S(C)(=O)=O [Compound 10d, 1,2-Bis(methylsulfonyl)-1-(2-chloroethyl)-2-(phenoxycarbonyl)hydrazine]
Calculated Activation Rate due to Hydrolysis [4]: 0.06 nmol/mL/min
Calculated Activation Rate due to Catalyzed Thiolysis (5 mM GSH + 17.5 U/ml GST) [5]: 1.80 nmol/mL/min
Calculated Activation Rate due to Thiolysis (5 mM GSH) [6]: 0.37 nmol/mL/min
% 60-day survivors [7]: 40%
Av Δ wt (average percent change in body weight from onset to termination of therapy) [7]: -1.0%

Cc1ccc(OC(=O)N(N(CCCl)S(C)(=O)=O)S(C)(=O)=O)cc1 [Compound 10e, 1,2-Bis(methylsulfonyl)-1-(2-chloroethyl)-2-[(4-tolyloxy)carbonyl]hydrazine]
Calculated Activation Rate due to Hydrolysis [4]: 0.02 nmol/mL/min
Calculated Activation Rate due to Catalyzed Thiolysis (5 mM GSH + 17.5 U/ml GST) [5]: 1.52 nmol/mL/min
Calculated Activation Rate due to Thiolysis (5 mM GSH) [6]: 0.45 nmol/mL/min
% 60-day survivors [7]: 20%
Av Δ wt (average percent change in body weight from onset to termination of therapy) [7]: -3.0%

CS(=O)(=O)N(CCCl)N(C(=O)Oc1ccc(Cl)cc1)S(C)(=O)=O [Compound 10f, 1,2-Bis(methylsulfonyl)-1-(2-chloroethyl)-2-[(4-chlorophenoxy)carbonyl]hydrazine]
Calculated Activation Rate due to Hydrolysis [4]: 0.06 nmol/mL/min
Calculated Activation Rate due to Catalyzed Thiolysis (5 mM GSH + 17.5 U/ml GST) [5]: 5.33 nmol/mL/min
Calculated Activation Rate due to Thiolysis (5 mM GSH) [6]: 0.92 nmol/mL/min
% 60-day survivors [7]: 80%
Av Δ wt (average percent change in body weight from onset to termination of therapy) [7]: -1.1%

COc1ccc(OC(=O)N(N(CCCl)S(C)(=O)=O)S(C)(=O)=O)cc1 [Compound 10g, 1,2-Bis(methylsulfonyl)-1-(2-chloroethyl)-2-[(4-methoxyphenoxy)carbonyl]hydrazine]
Calculated Activation Rate due to Hydrolysis [4]: 0.14 nmol/mL/min
Calculated Activation Rate due to Catalyzed Thiolysis (5 mM GSH + 17.5 U/ml GST) [5]: 1.80 nmol/mL/min
Calculated Activation Rate due to Thiolysis (5 mM GSH) [6]: 0.41 nmol/mL/min
% 60-day survivors [7]: 40%
Av Δ wt (average percent change in body weight from onset to termination of therapy) [7]: -2.5%

CS(=O)(=O)N(CCCl)N(C(=O)OCc1ccccc1)S(C)(=O)=O [Compound 11, 2-Benzyloxycarbonyl-1,2-bis(methylsulfonyl)-1-(2-chloroethyl)hydrazine]
toxicity to EMT6 cells, aerobic versus hypoxic (in words) ([8]; hypoxic or aerobic (FIG. 2)): essentially equitoxic to EMT6 cells under both conditions of oxygenation

CC(OC(=O)N(N(CCCl)S(C)(=O)=O)S(C)(=O)=O)c1ccc([N+](=O)[O-])cc1 (stereo not shown) [Compound 14, 1,2-Bis(methylsulfonyl)-1-(2-chloroethyl)-2-[[1-(4-nitrophenyl)ethoxy]carbonyl]hydrazine]
toxicity to aerobic EMT6 cells compared with compound 10h (in words) ([8]; aerobic (FIG. 7 versus FIG. 1)): less toxic to aerobic EMT6 cells than compound 10h
toxicity to hypoxic EMT6 cells compared with compound 10h (in words) ([8]; hypoxic (FIG. 7 versus FIG. 1)): essentially the same as that of compound 10h

CS(=O)(=O)N(CCCl)N(C(=O)OCOP(=O)(O)O)S(C)(=O)=O [Compound 16, triethanolamine salt of the free acid acid of O-dibenzylphosphate-methyl carbamate]
% Body Weight Change ([7]; multiple dose 6 × 10 mg/kg): -3.6%
Average Survival ([7]; multiple dose 6 × 10 mg/kg): 14.7 days
T/C ([7]; multiple dose 6 × 10 mg/kg): 184%
Long Term Survival ([7]; multiple dose 6 × 10 mg/kg): 2/5
% Body Weight Change ([7]; multiple dose 6 × 20 mg/kg): +2.5%
Average Survival ([7]; multiple dose 6 × 20 mg/kg): 19.5 days
T/C ([7]; multiple dose 6 × 20 mg/kg): 244%
Long Term Survival ([7]; multiple dose 6 × 20 mg/kg): 3/5
% Body Weight Change ([7]; multiple dose 6 × 40 mg/kg): +3.7%
Long Term Survival ([7]; multiple dose 6 × 40 mg/kg): 5/5
% Body Weight Change ([7]; multiple dose 6 × 60 mg/kg): -23.2%
Average Survival ([7]; multiple dose 6 × 60 mg/kg): 11.0 days
T/C ([7]; multiple dose 6 × 60 mg/kg): 138%
Long Term Survival ([7]; multiple dose 6 × 60 mg/kg): 3/5
activity against the L1210 leukemia (in words) ([7]; i.p. once daily for 6 days): significant activity against the L1210 leukemia tumor; also recorded: significant antitumor activity
